A short description of one experiment: Inhibition of CXCL8-induced chemotaxis in human polymorphonuclear leukocyte pretreated for 15 mins measured after 4 hrs by cell migration assay.
`O=C(O)Cc1ccccc1Oc1ccccc1Cl` [[2-(2-Chloro-phenoxy)-phenyl]-acetic acid]: the IC50 (as a rule, the concentration needed to halve the response being measured) was found to be 500 nM.

In the case of `O=C(O)Cc1ccccc1Oc1ccccc1` [(2-Phenoxy-phenyl)-acetic acid], the IC50 was above 1000 nM.

With `O=C(O)Cc1ccccc1Nc1c(Cl)cccc1Cl` [{2-[(2,6-dichlorophenyl)amino]phenyl}acetic acid], the IC50 came to 8 nM.

Take `Cc1ccc(C(=O)c2ccc(CC(=O)O)n2C)cc1` [2-(1-methyl-5-(4-methylbenzoyl)-1H-pyrrol-2-yl)acetic acid]: the IC50 came to 90 nM.

In the case of `CC(C(=O)NS(C)(=O)=O)c1ccccc1Nc1c(Cl)cccc1Cl` (stereo unspecified) [2-{2-[(2,6-Dichlorophenyl)amino]phenyl}-N-(methylsulfonyl)propanamide], the IC50 is 13 nM.

Regarding `O=C(O)Cc1ccccc1Oc1ccccc1F` [2-(2-(2-fluorophenoxy)phenyl)acetic acid], the IC50 is 13 nM.

Consider `O=C(O)Cc1ccccc1Nc1ccccc1` [(2-Phenylamino-phenyl)-acetic acid], for which the IC50 was above 1000 nM.

Turning to `O=C(O)Cc1ccccc1Nc1ccccc1F` [2-(2-(2-fluorophenylamino)phenyl)acetic acid], the IC50 turned out to be 9 nM.

As for `O=C(O)Cc1ccccc1Cc1c(Cl)cccc1Cl` [2-(2-(2,6-dichlorobenzyl)phenyl)acetic acid], the IC50 was above 1000 nM.

In the case of `O=C(O)Cc1ccccc1Nc1c(F)cccc1F` [2-(2-(2,6-difluorophenylamino)phenyl)acetic acid], the IC50 was above 1000 nM.

For `CS(=O)(=O)NC(=O)Cc1ccccc1Oc1ccccc1F` [2-[2-(2-Fluorophenoxy)phenyl]-N-(methylsulfonyl)acetamide], the IC50 was determined as 50 nM.

`CC(C(=O)NCCCN(C)C)c1ccccc1Nc1c(Cl)cccc1Cl` (stereo unspecified) [2-{2-[(2,6-Dichlorophenyl)amino]phenyl}-N,N'-[3,3-(dimethylamino)propyl]propanamide]: the IC50 came to 25 nM.

On to `CC(C(=O)NC(C)(C)C)c1ccccc1Nc1c(Cl)cccc1Cl` (stereo unspecified) [N-(tert-Butyl)-2-{2-[(2,6-dichlorophenyl)amino]phenyl}propanamide], for which the half-inhibitory concentration (IC50) is 650 nM.

With `Cc1ccc(Cl)c(Nc2ccccc2CC(=O)O)c1Cl` [2-(2-(2,6-dichloro-3-methylphenylamino)phenyl)acetic acid], the IC50 stood at 500 nM.

In the case of `CC(C(N)=O)c1ccccc1Nc1c(Cl)cccc1Cl` (stereo unspecified) [2-{2-[(2,6-Dichlorophenyl)amino]phenyl}propanamide], the IC50 is 12 nM.

On to `CC(C(=O)NCCC[N+](C)(C)C)c1ccccc1Nc1c(Cl)cccc1Cl` (stereo unspecified) [3-(2-(2-(2,6-dichlorophenylamino)phenyl)propanamido)-N,N,N-trimethylpropan-1-aminium iodide], for which the IC50 was above 1000 nM.

Consider `CC(C(=O)NCCO)c1ccccc1Nc1c(Cl)cccc1Cl` (stereo unspecified) [2-{2-[(2,6-Dichlorophenyl)amino]phenyl}-N-(2-hydroxyethyl)propanamide], for which the IC50 stood at 20 nM.

For the molecule `CC(C)Cc1ccc(CC(=O)O)cc1` [Ibufenac], the IC50 is above 1000 nM.

For `COc1ccc2c(c1)c(CC(=O)O)c(C)n2C(=O)c1ccc(Cl)cc1` [indometacin], the IC50 came to 50 nM.

For `O=C(O)Cc1ccccc1Nc1ccccc1Cl` [[2-(2-Chloro-phenylamino)-phenyl]-acetic acid], the IC50 was found to be 400 nM.

As to `CC(C(=O)O)c1ccccc1Nc1c(Cl)cccc1Cl` (stereo unspecified) [2-{2-[(2,6-Dichlorophenyl)amino]phenyl}propanoic acid], the IC50 worked out at 10 nM.

With `Cc1ccccc1Nc1ccccc1CC(=O)O` [2-(2-(o-tolylamino)phenyl)acetic acid], the IC50 was above 1000 nM.

Regarding `O=C(O)Cc1cccc(C(=O)c2ccccc2)c1` [2-(3-benzoylphenyl)acetic acid], the IC50 is above 1000 nM.

With `Cc1cccc(C)c1NC(=O)C(C)c1ccccc1Nc1c(Cl)cccc1Cl` (stereo unspecified) [2-{2-[(2,6-Dichlorophenyl)amino]phenyl}-N-(2,6-dimethylphenyl)propanamide], the IC50 was found to be 600 nM.

Regarding `O=C(O)Cc1ccccc1Nc1cc(Cl)ccc1Cl` [[2-(2,5-Dichloro-phenylamino)-phenyl]-acetic acid], the IC50 was determined as 25 nM.

Another experiment in a line: Inhibition of wild type CXCR1 transfected in mouse L1.2 cells assessed as inhibition of CXCL8-induced cell migration pretreated for 15 mins measured after 4 hrs.
As to `O=C(O)Cc1ccccc1Nc1c(Cl)cccc1Cl` [{2-[(2,6-dichlorophenyl)amino]phenyl}acetic acid], the IC50 turned out to be 12 nM.

The values are drawn from BindingDB's records for doi:10.1016/j.bmcl.2009.06.027 (Grupo Uriach, 2009).
